Series [1] in a line: in vitro. It is filed as cell-based, human. The conditions noted are these: human, mrc-5 cells. As to the method: (§1) The cytotoxicity of B-PFA and B-PAA in subconfluent MRC-5 cells was assessed by trypan blue exclusion.
In series [2] the test system is MRC-5 cells. Briefly: in vitro. The series is classed as cell-based, human. As to the method:
as §1

Series [3] concerns human cytomegalovirus. Briefly: CMV antiviral susceptibility assay: HCMV DNA by nucleic acid hybridization in infected MRC-5 cells (Tables I and II). It is filed as cell-based. Conditions: for fold increase in activity / times the activity of PAA: HCMV; for IC50: HCMV-infected MRC-5 cells, HCMV DNA after five days, mean ± S.D. (n). As to the method:
Phosphonoacid derivatives having structures according to formula I were tested for antiviral activity in human embryonic lung fibroblasts (MRC-5) or in human epithelioid cervical carcinoma cells (HeLa) expressing the CD4 receptor (HT4-6C). HCMV (strain AD-169) and HSV-1 (wild type) were used to infect MRC-5 cells and HCMV or HSV-specific DNA was measured by DNA-probe methods (HybriwixTM, Diagnostic Hybrids, Inc., Athens, Ohio) according to the manufacturer's instructions. HIV replication was accessed in HIV-1 infected HT4-6C cells using a plaque reduction assay ([…]. et al. (1990) Antimicrobial Agents Chemother. 34:436). Subconfluent MRC-5 cells in 24-well culture dishes were pretreated for 24 hours with various concentrations of drug in MEM medium containing 2% FBS and antibiotics. The media was removed and virus added at a dilution that will result in a 3-4+ cytopathic effect (CPE) in the no-drug wells in five days. This was absorbed for 1 hour at 37° C., aspirated and replaced with the drug dilutions. After five days of incubation HCMV DNA was quantified in triplicate by nucleic acid hybridization using a CMV Antiviral Susceptibility Test Kit from Diagnostic Hybrids, Inc. (Athens, Ohio). The media was removed and cells lysed according to the manufacturer's instructions. After absorption of the lysate, the HybriwixTM filters were hybridized overnight at 60° C. The HybriwixTM were washed for 30 minutes at 73° C. and counted in a gamma counter. The results are expressed as a percentage of the untreated HCMV-infected control cells.

In series [4] the test system is human immunodeficiency virus-1. In words: HIV-1 plaque reduction assay in HT4-6C cells (Table IV). The series is classed as cell-based, HIV-1 in CD4-expressing human HeLa cells (HT4-6C). The conditions noted are these: for fold increase in activity: HIV-1, versus PFA; for IC50: Human immunodeficiency virus 1, 72 h, HIV-1 plaque reduction in HT4-6C cells, 3 days, mean ± S.D. (n). On the procedure:
(§2) Phosphonoacid derivatives having structures according to formula I were tested for antiviral activity in human embryonic lung fibroblasts (MRC-5) or in human epithelioid cervical carcinoma cells (HeLa) expressing the CD4 receptor (HT4-6C). HCMV (strain AD-169) and HSV-1 (wild type) were used to infect MRC-5 cells and HCMV or HSV-specific DNA was measured by DNA-probe methods (Hybriwix™, Diagnostic Hybrids, Inc., Athens, Ohio) according to the manufacturer's instructions. HIV replication was accessed in HIV-1 infected HT4-6C cells using a plaque reduction assay (Larder, B. et al. (1990) Antimicrobial Agents Chemother. 34:436).
HT4-6C cells and plaque reduction assay, CD4-expressing HeLa cells, HT4-6C cells (Chesebro, B. and K. Wehrly (1988) J. Virology 62:3779-3788), were obtained from Bruce Chesebro, Hamilton, Mont. The effect of antiviral compounds on HIV replication was measured by a plaque reduction assay. Briefly, monolayers of HT4-6C cells were infected with 100 to 300 PFU of virus per well in 24-well microdilution plates. Various concentrations of drug were added to the culture medium, Dulbecco's Modified Eagle Medium containing 5% fetal bovine serum and antibiotics, as noted above. After 3 days at 37° C., the monolayers were fixed with 10% formaldehyde solution in phosphate-buffered saline and stained with 0.25% crystal violet to visualize virus plaques (Larder, B. et al. (1989) Science 243:1731-1734). Antiviral activity was assessed as the percentage of control plaques measured in drug-treated samples.
(In general: Plaques are areas of infected cells; plaque reduction assays count them against a control.)

In series [5] the test system is human herpes simplex virus 1. In words: HSV antiviral susceptibility assay: HSV DNA by nucleic acid hybridization in infected MRC-5 cells (Table III). The series is classed as cell-based. Conditions: for times more active than PFA / fold increase in activity: HSV-1; for fold increase in activity: versus PFA; for IC50: Human alphaherpesvirus 1, MRC5, HSV-1-infected MRC-5 cells, approximately 24 hours, mean ± S.D. (n), read-out: IC50. On the procedure:
as §2
Subconfluent MRC-5 cells in 24-well culture dishes were inoculated by removing the media and adding HSV-1 virus at a dilution that will result in a 3-4+ CPE in the no-drug well in 20-24 hours. This was absorbed for 1 hour at 37° C., aspirated and replaced with various concentrations of drugs in MEM medium containing 2% FBS and antibiotics. After approximately 24 hours of incubation, HSV DNA was quantified in triplicate by nucleic acid hybridization using a HSV Antiviral Susceptibility Test Kit from Diagnostic Hybrids, Inc. (Athens, Ohio). The media was removed and cells lysed according to the manufacturer's instructions. After absorption of the lysate, the Hybriwix™ filters were hybridized overnight at […] The Hybriwix™ were washed for 30 minutes at 73° C. and counted in a gamma counter. The results are expressed as a percentage of the untreated HSV-infected control cells.

[6] abbreviates: phosphonoacetate series, versus PAA.
Where [7] appears, read: Human betaherpesvirus 5, MRC5, 120 h.
[8] abbreviates: phosphonoformate series, versus PFA.

A word on the CC50: it is the concentration giving 50% cytotoxicity. Low readings indicate harm at low concentration, high ones better tolerance by the cells. In general, IC50 refers to the concentration needed to halve the response being measured. In turn, `CCCCCCCCCCCCCCCCCCOC[C@@H](O)COP(=O)(O)CC(=O)O` [B--PAA, 1O-octadecyl-snglycero-3-phosphonoacetic acid] yielded a CC50 in series [1] of 32 to 100 µM. Also, in series [2], the selectivity index was ≥ 300. The “fold increase in activity” value in series [3] (setting [6]) came out at 100 fold. The molecule also registered an IC50 in series [3] (setting [7]) of 0.22 ± 0.08 µM.

For `CCCCCCCCCCCCCCCCCCOC[C@@H](O)COP(=O)(O)CC(=O)OCC` [B--PAA--OEt, 1O-octadecyl-snglycero-3-phosphonoacetate ethyl ester], the “fold increase in activity” value in series [3] (setting [6]) is on record as 6.1 fold. Also, half-maximal inhibition in series [3] (setting [7]) (IC50) required 3.6 ± 1.5 µM.

Turning to `CCCCCCCCCCCCCCCCCCOC[C@@H](O)COP(=O)(O)C(=O)O` [B--PFA, 1O-octadecyl-snglycero-3-phosphonoformic acid], in series [1], the CC50 was > 1000 µM. In series [2], the selectivity index is recorded as ≥ 300. Moreover, the “fold increase in activity” value is listed as 37 fold in series [4], 107 fold in series [3] (setting [8]) and 43 fold in series [5]. The results for the IC50 in series [4], in series [3] (setting [7]) and in series [5] were 3.6 ± 1.51 µM, 0.43 ± 0.27 µM and 1.1 ± 1.1 µM, respectively. In series [5], the “times more active than PFA” value was determined as 43 times.

`CCCCCCCCCCCCCCCCCCOC[C@@H](O)COP(=O)(O)C(=O)OCC` [B--PFA--OEt, 1O-octadecyl-snglycero-3-phosphonoformate ethyl ester]: the “fold increase in activity” value in series [3] (setting [8]) stood at 38 fold. The molecule also showed an IC50 in series [3] (setting [7]) of 1.2 ± 0.49 µM.

Regarding `CCCCCCCCCCCCCCCCCCOC[C@H](COC(=O)CP(=O)(O)O)OCc1ccccc1` [BB--(C)--PAA, 1O-octadecyl-2-O-benzyl-snglycero-3-carboxymethylenephosphonate], the “fold increase in activity” value in series [3] (setting [6]) is 16 fold. The same molecule registered an IC50 in series [3] (setting [7]) of 1.4 ± 0.9 µM.

On to `CCCCCCCCCCCCCCCCCCOC[C@H](COP(=O)(O)CC(=O)O)OCc1ccccc1` [BB--PAA, 1O-octadecyl-2-O-benzyl-snglycero-3-phosphonoacetic acid], for which, in series [3] (setting [6]), the “fold increase in activity” value is given as 24 fold. This molecule also displayed an IC50 in series [3] (setting [7]) of 0.92 ± 0.8 µM.

On to `CCCCCCCCCCCCCCCCCCOC[C@H](COP(=O)(O)CC(=O)OCC)OCc1ccccc1` [BB--PAA--OEt, 1O-octadecyl-2-O-benzyl-snglycero-3-phosphonoacetate ethyl ester], for which the “fold increase in activity” value in series [3] (setting [6]) was determined as 3.1 fold. In addition, it took 7.2 ± 1 µM to reach half-maximal inhibition in series [3] (setting [7]) (IC50).

`CCCCCCCCCCCCCCCCCCOC[C@H](COP(=O)(O)C(=O)O)OCc1ccccc1` [BB--PFA, 1O-octadecyl-2-O-benzyl-snglycero-3-phosphonoformic acid]: the “fold increase in activity” value in series [4] is reported as 9.0 fold; in series [4] (listed as BB-PFA), 9 fold; in series [3] (setting [8]), 72 fold; in series [5] it was 34 fold. Moreover, the values for the IC50 in series [4], in series [3] (setting [7]) and in series [5] were 14.8 ± 7.3 µM, 0.64 ± 0.65 µM and 1.4 ± 0.4 µM, respectively. Further, the “times more active than PFA” value in series [5] came to 34 times.

Regarding `CCCCCCCCCCCCCCCCCCOC[C@H](COP(=O)(O)C(=O)OCC)OCc1ccccc1` [BB--PFA--OEt, 1O-octadecyl-2-O-benzyl-snglycero-3-phosphonoformate ethyl ester], in series [3] (setting [8]), the “fold increase in activity” value is reported as 16 fold. For the same molecule, in series [3] (setting [7]), the IC50 turned out to be 2.9 ± 0.97 µM.

As for `CCCCCCCCCCCCCC(=O)OC[C@H](COP(=O)(O)CC(=O)O)OC(=O)CCCCCCCCCCCCC` [DMG--PAA, 1,2dimyristoyl-snglycero-3-phosphonoacetate], the “times the activity of PAA” value in series [3] was found to be 1.2 times. Further, the “fold increase in activity” value in series [3] (setting [6]) is 1.2 fold. The same molecule showed an IC50 in series [3] (setting [7]) of 19 ± 6.5 µM.

Take `CCCCCCCCCCCCCC(=O)OC[C@H](COP(=O)(O)CC(=O)OCC)OC(=O)CCCCCCCCCCCCC` [DMG--PAA--OEt, 1,2dimyristoyl-snglycero-3-phosphonoacetate ethyl ester]: the “fold increase in activity” value in series [3] (setting [6]) is reported as 0.2 fold. In series [3] (setting [7]), this molecule returned an IC50 of 108 ± 42 µM.

Regarding `CCCCCCCCCCCCCC(=O)OC[C@H](COP(=O)(O)C(=O)O)OC(=O)CCCCCCCCCCCCC` [DMG--PFA, 1,2dimyristoyl-snglycero-3-phosphonoformate], in series [3] (setting [8]), the “fold increase in activity” value is on record as 0.33 fold. Moreover, in series [3] (setting [7]), the IC50 amounted to 125 ± 43 µM.

For `CCCCCCCCCCCCCC(=O)OC[C@H](COP(=O)(O)C(=O)OCC)OC(=O)CCCCCCCCCCCCC` [DMG--PFA--OEt, 1,2dimyristoyl-snglycero-3-phosphonoformate ethyl ester], the “fold increase in activity” value in series [3] (setting [8]) is given as 1.53 fold. This molecule showed an IC50 in series [3] (setting [7]) of 30 ± 18 µM.

`CCCCCCCCCCCCCC(=O)OC[C@H](COP(=O)(O)OP(=O)(O)CC(=O)O)OC(=O)CCCCCCCCCCCCC` [DMP--PAA, 1,2dimyristoyl-snglycero-3-phospho-phosphonoacetate]: in series [3], the “times the activity of PAA” value was 0.24 times and the concentration for half-maximal inhibition (IC50) was 93 ± 92 µM. In addition, in series [3] (setting [6]), the “fold increase in activity” value is 0.2 fold.

Consider `CCCCCCCCCCCCCC(=O)OC[C@H](COP(=O)(O)OP(=O)(O)CC(=O)OCC)OC(=O)CCCCCCCCCCCCC` [DMP--PAA--OEt, 1,2dimyristoyl-snglycero-3-phospho-phosphonoacetate ethyl ester], for which the 50% inhibitory concentration (IC50) in series [3] turned out to be 130 ± 28 µM. In addition, the “fold increase in activity” value in series [3] (setting [6]) amounted to 0.2 fold.

`CCCCCCCCCCCCCCCC(=O)OC[C@H](COP(=O)(O)OP(=O)(O)CC(=O)O)OC(=O)CCCCCCCCCCCCCCC` [DPP--PAA, 1,2dipalmitoyl-snglycero-3-phospho-phosphonoacetate]: in series [3], the “times the activity of PAA” value is reported as 0.28 times and the IC50 worked out at 80 ± 42 µM. For the same molecule, the “fold increase in activity” value in series [3] (setting [6]) turned out to be 0.3 fold.

With `CCCCCCCCCCCCCCCCCCOC[C@H](COP(=O)(O)CC(=O)O)OC` [MB--PAA, 1O-octadecyl-2-O-methyl-snglycero-3-phosphonoacetic acid], in series [3] (setting [6]), the “fold increase in activity” value turned out to be 36 fold. Also, in series [3] (setting [7]), the IC50 was 0.61 ± 0.76 µM.

`CCCCCCCCCCCCCCCCCCOC[C@H](COP(=O)(O)CC(=O)OCC)OC` [MB--PAA--OEt, 1-O-octadecyl-2-O-methyl-sn-glycero-3-phosphonoacetic acid ethyl ester]: the “fold increase in activity” value in series [3] (setting [6]) came to 3.3 fold. Also, in series [3] (setting [7]), the IC50 came out at 6.7 ± 1.9 µM.

As to `CCCCCCCCCCCCCCCCCCOC[C@H](COP(=O)(O)C(=O)O)OC` [MB--PFA, 1O-octadecyl-2-O-methyl-snglycero-3-phosphonoformic acid], the “activity compared with B-PFA” value in series [4] (HIV-1, HT4-6C cells, p = 0.0373 versus B-PFA) is “more active than B-PFA to a statistically significant degree”. For the same molecule, the “fold increase in activity” value in series [4] is listed as 104 fold; in series [3] (setting [8]), 72 fold; in series [3] (phosphonoformate series, versus PFA, listed as MB-PFA), 38 fold; in series [5] it was 72 fold. The IC50 in series [4] was 1.28 ± 0.73 µM; in series [3] (setting [7]), 0.64 ± 0.14 µM; in series [5], 0.65 ± 0.21 µM. In series [5], the “times more active than PFA” value amounted to 72 times.

The values above are taken from patent US5696277A, “Antiviral prodrugs” (Hostetler; Karl Y., priority 1994, dated 1997).
